This note sets out measurements from US9879303B2, “Chromogenic glucuronidase substrates and uses” (Glycosynth Limited, priority 2013, dated 2018).

Assay in all cases: multi-point inoculation onto Columbia agar plates
Holding throughout (assay type): cell-based
Details in all cases: substrate 300 mg/L, FAC 500 mg/L, 18 h at 37° C. in air

The test system of experiment [1] is Acinetobacter baumanaii NCTC 19606. As to the method: (§1) The specificity of action of both DHN-β-D-glucuronide (2) and of catechol-β-D-glucuronide (1), as well as their 6′-methyl esters (4 and 6), was first established using multi-point inoculation of 20 different microbial strains onto Columbia agar plates. The strains chosen represented species commonly encountered in diagnostic microbiology. The substrates were incorporated into the agar at a concentration of 300 mg/L with an iron salt, ferric ammonium citrate, (hereinafter known as FAC) at 500 mg/L. The plates were incubated for 18 h at 37° C. in air.

For experiment [2], the system named is Bacillus subtilis NCTC 9372. How it is done:
as §1

The test system of experiment [3] is Burkholderia cepacia NCTC 10931. As to the method:
as §1

Experiment [4] deals with Candida albicans ATCC 90028. How it is done: as §1
Experiment [5] deals with Candida glabrata NCPF 3943. How it is done: as §1
Experiment [6] has as its system Enterobacter cloacae NCTC 11936. As to the method:
as §1

Experiment [7] concerns Enterococcus faecalis NCTC 775. How it is done: as §1
The subject of experiment [8] is Enterococcus faecium NCTC 7171. How it is done: as §1
The subject of experiment [9] is Escherichia coli NCTC 10418. How it is done:
as §1

Experiment [10] relates to Klebsiella pneumoniae NCTC 9528. How it is done: as §1
Experiment [11] concerns Listeria monocytogenes NCTC 11994. As to the method: as §1
Experiment [12] concerns Providencia rettgeri NCTC 7475. As to the method: as §1
For experiment [13], the system named is Pseudomonas aeruginosa NCTC 10662. How it is done: as §1
The subject of experiment [14] is Salmonella typhimurium NCTC 74. As to the method: as §1
Experiment [15] deals with Serratia marcescens NCTC 10211. As to the method:
as §1

Experiment [16] deals with Staphylococcus aureus (MRSA) NCTC 11939. As to the method: as §1
For experiment [17], the system named is Staphylococcus aureus NCTC 6571. As to the method: as §1
Experiment [18] deals with Staphylococcus epidermidis NCTC 11047. As to the method:
as §1

Experiment [19] has as its system Streptococcus pyogenes NCTC 8306. How it is done: as §1
Experiment [20] concerns Yersinia enterocolitica NCTC 11176. As to the method: as §1

Counter-ions that a name gives are not always drawn.

For `O=C(O)C1OC(Oc2ccccc2O)C(O)C(O)C1O` [Compound 1, Catechol β-D-Glucuronide CHA Salt], the colour entry in experiment [1], in [2], in experiment [3], in experiment [4], in experiment [5] and in experiment [6] was “−” in each case. Also, the colour entry is on record as “−” in experiment [7]; “−” in experiment [8]; “++” in experiment [9]; “−” in experiment [10]; “−” in experiment [11]; “−” in experiment [12]. For the same compound, the colour result in experiment [13], in [14], in experiment [15], in experiment [16], in experiment [17] and in experiment [18] was “−” throughout. Also, the colour entry in experiment [19] and in [20] was “−” each time.

As for `O=C(O)C1OC(Oc2cc3ccccc3cc2O)C(O)C(O)C1O` [Compound 2b, DHN-β-D-Glucuronide CHA Salt], the colour result in experiment [1], in experiment [2], in experiment [3], in [4], in experiment [5] and in experiment [6] was “−” in each case. For the same compound, the colour result is recorded as “−” in experiment [7]; “−” in experiment [8]; “++” in [9]; “−” in experiment [10]; “−” in experiment [11]; “−” in experiment [12]. Moreover, the colour entry in experiment [13], in experiment [14], in experiment [15], in [16], in experiment [17] and in experiment [18] was “−” in each case. In addition, the colour result in experiment [19] and in experiment [20] was “−” in each case.
